According to patent US9414590B2, “Chemical and biological agents for the control of molluscs” (priority 2009, dated 2016):
Where two headings read alike, the source gives them in different places.

What was measured:
[1] = tested on: quagga mussels; assay: Mussel bioassay test (live mussel jar-test); format: in vivo, Dreissena bugensis; details: Dreissena rostriformis, 16 μg/ml
Procedure: Twenty freshly collected quagga mussels is placed in a jar containing 250 mL of de-chlorinated tap water at room temperature. Jars are kept at room temperature and connected into a manifold providing constant air supply through bubbling. Each test subject (HPLC fraction or peak) dissolved in DMSO is pipetted into jars separately at a concentration of 1-5 mg, and the mussels are incubated with the test subject for 24 hours. After the incubation period, water in each jar is discarded, and the mussels are rinsed with fresh water and transferred into open glass petri dishes for a 10-day observation period. Mussels are checked daily for mortality, and the dead mussels are removed and discarded. Each treatment is carried out in three replicates, and in the end of the 10-day incubation period, % mortality is calculated for each treatment.
The potency of compounds isolated from Pseudomonas cell culture is tested using procedures described above.

[2] = tested on: CL145A (ATCC 55799); assay: Antibiotic resistance profile, discs on Mueller-Hinton Agar; format: cell-based, Pseudomonas protegens strain CL145A; details: for CL145A resistant or sensitive to the antibiotic: antibiotic disc, 72 hours incubation; for Suppresses growth of CL145A: 25° C., 72 hours
Procedure: One glycerol stock vial of CL145A was equally distributed onto Mueller-Hinton Agar plates (100 μl per plate) and spread on the plate using a sterile cell spreader. Antibiotic discs were then placed onto the plates along with a blank sterile disc. Plates were incubated at 25° C. in the dark for 72 hours.

[3] = tested on: quagga mussels; assay: whole plant or invertebrate; details: Dreissena rostriformis
[4] = tested on: Brown garden snails (Cantareus aspersus); assay: Snail experiments: chemical-containing corn starch; format: in vivo; details: 100 mg/gram corn starch; for Consumed amount of corn starch: after 24 hr
Procedure: An appropriate amount of a testing compound is dissolved in acetone (2 mL) first. The solution was added into 2.5 gram of corn starch and mixed well. The resulting mixture is transferred to a Petri dish (Φ 25 mm). The Petri dish is then put in the hood for natural dry. After drying, water (2 mL) is added into the Petri dish to make paste.
Brown garden snails (Cantareus aspersus) are collected from a house garden and raised at least 1 day in lab with cabbage or red carrot. Five individuals with a similar size are chosen for each treatment and transferred into a 1 L beaker. To make the snail active, some water is sprayed on them and in the beaker by using hand-sprayer. After spraying water, the Petri dish with chemical-containing corn starch is placed into the beaker the beaker is covered on the top with aluminum foil. Eating behavior, consumed amount of corn starch and mortality at 24 hr is recorded.

[5] = 24 hr, read-out: % mortality 24 hr
[6] = 48 hr, read-out: % mortality 48 hr
[7] = 72 hr, read-out: % mortality 72 hr
[8] = 96 hr, read-out: % mortality 96 hr
[9] = 24 h, read-out: Molluscicidal effect (mortality) 24 hr
[10] = 48 h, read-out: Molluscicidal effect (mortality) 48 hr
[11] = 72 h, read-out: Molluscicidal effect (mortality) 72 hr
[12] = 96 h, read-out: Molluscicidal effect (mortality) 96 hr
[13] = 24 h, read-out: Potency toward quagga mussels (mortality) 24 hr
[14] = 48 h, read-out: Potency toward quagga mussels (mortality) 48 hr
[15] = 72 h, read-out: Potency toward quagga mussels (mortality) 72 hr
[16] = 96 h, read-out: Potency toward quagga mussels (mortality) 96 hr

CCCCC/C=C/C(O)CCCCCCCCCC(=O)O (stereo not drawn) [11-Hydroxy-12-ene-octadecanoic acid]
mortality at 16 µg/mL [1, 5]: 0%
mortality at 16 µg/mL [1, 6]: 20 ± 20%
mortality at 16 µg/mL [1, 7]: 33.3 ± 20.8%
mortality at 16 µg/mL [1, 8]: 40 ± 26.5%

CC1(C)S[C@@H]2[C@H](NC(=O)[C@H](N)c3ccccc3)C(=O)N2[C@H]1C(=O)O [Ampicillin]
CL145A resistant or sensitive to the antibiotic [2]: resistant
Suppresses growth of CL145A ([2]; disc 10 μg): No

CO/N=C(\C(=O)N[C@@H]1C(=O)N2C(C(=O)O)=C(COC(N)=O)CS[C@H]12)c1ccco1 [Cefuroxime]
CL145A resistant or sensitive to the antibiotic [2]: resistant
Suppresses growth of CL145A ([2]; disc 30 μg): No

O=C(N[C@H](CO)[C@H](O)c1ccc([N+](=O)[O-])cc1)C(Cl)Cl [Chloramphenicol]
CL145A resistant or sensitive to the antibiotic [2]: resistant
Suppresses growth of CL145A ([2]; disc 30 μg): No

CC[C@H]1OC(=O)[C@H](C)[C@@H](O[C@H]2C[C@@](C)(OC)[C@@H](O)[C@H](C)O2)[C@H](C)[C@@H](O[C@@H]2O[C@H](C)C[C@H](N(C)C)[C@H]2O)[C@](C)(O)C[C@@H](C)C(=O)[C@H](C)[C@@H](O)[C@]1(C)O [Erythromycin]
CL145A resistant or sensitive to the antibiotic [2]: resistant
Suppresses growth of CL145A ([2]; disc 15 μg): No

CCCCC/C=C/C(O)CCCCCCC1CCC(=O)O1 (stereo not drawn) [Piliferolide A]
mortality at 16 µg/mL [1, 5]: 53.3 ± 15.3%
mortality at 16 µg/mL [1, 6]: 53.3 ± 15.3%
mortality at 16 µg/mL [1, 7]: 70 ± 10%
mortality at 16 µg/mL [1, 8]: 80 ± 10%

CCN1CCN(C(=O)N[C@@H](C(=O)N[C@@H]2C(=O)N3[C@@H]2SC(C)(C)[C@@H]3C(=O)O)c2ccccc2)C(=O)C1=O [Piperacillin]
CL145A resistant or sensitive to the antibiotic [2]: sensitive
Suppresses growth of CL145A ([2]; disc 100 μg): Yes

CCCCCCCCC1CCC(=O)O1 (stereo not drawn) [SAR-001]
mortality at 11.1 µg/mL [3, 9]: 86.7 ± 5.8%
mortality at 11.1 µg/mL [3, 10]: 96.7 ± 5.8%
mortality at 11.1 µg/mL [3, 11]: 96.7 ± 5.8%
mortality at 11.1 µg/mL [3, 12]: 96.7 ± 5.8%

CCCCCCCC1CCOC1=O (stereo not drawn) [SAR-002]
mortality at 11.1 µg/mL [3, 9]: 30 ± 10%
mortality at 11.1 µg/mL [3, 10]: 66.7 ± 15.3%
mortality at 11.1 µg/mL [3, 11]: 73.3 ± 11.5%
mortality at 11.1 µg/mL [3, 12]: 76.7 ± 15.3%

CCCCCCCCC1CCCC(=O)O1 (stereo not drawn) [SAR-003]
mortality at 11.1 µg/mL [3, 9]: 3.3 ± 5.7%
mortality at 11.1 µg/mL [3, 10]: 10 ± 10%
mortality at 11.1 µg/mL [3, 11]: 10 ± 10%
mortality at 11.1 µg/mL [3, 12]: 10 ± 10%

CCCCCCCCCC1CCCC(=O)O1 (stereo not drawn) [SAR-004]
mortality at 11.1 µg/mL [3, 9]: 0%
mortality at 11.1 µg/mL [3, 10]: 0%
mortality at 11.1 µg/mL [3, 11]: 0%
mortality at 11.1 µg/mL [3, 12]: 0%

CCCCCCCCCCCC(=O)O [SAR-005]
mortality at 11.1 µg/mL [3, 9]: 0%
mortality at 11.1 µg/mL [3, 10]: 0%
mortality at 11.1 µg/mL [3, 11]: 0%
mortality at 11.1 µg/mL [3, 12]: 0%

CCCCCCCCC(O)CCC(=O)O (stereo not drawn) [SAR-006]
mortality at 11.1 µg/mL [3, 9]: 0%
mortality at 11.1 µg/mL [3, 10]: 0%
mortality at 11.1 µg/mL [3, 11]: 0%
mortality at 11.1 µg/mL [3, 12]: 0%

CCCCCCCCCC(=O)N1CCCC1 [SAR-007, N-(Decanoyl)pyrrolidine]
mortality at 11.1 µg/mL [3, 13]: 35 ± 7%
mortality at 11.1 µg/mL [3, 14]: 50 ± 14%
mortality at 11.1 µg/mL [3, 15]: 55 ± 21%
mortality at 11.1 µg/mL [3, 16]: 65 ± 21%

CCCCCC1CCC(=O)O1 (stereo not drawn) [SAR-008]
mortality at 11.1 µg/mL [3, 9]: 0%
mortality at 11.1 µg/mL [3, 10]: 0%
mortality at 11.1 µg/mL [3, 11]: 0%
mortality at 11.1 µg/mL [3, 12]: 0%

CCCC1CCC(=O)O1 (stereo not drawn) [SAR-011]
mortality at 11.1 µg/mL [3, 9]: 0%
mortality at 11.1 µg/mL [3, 10]: 0%
mortality at 11.1 µg/mL [3, 11]: 0%
mortality at 11.1 µg/mL [3, 12]: 0%

O=C1CCC(c2ccccc2)O1 (stereo not drawn) [SAR-013]
mortality at 11.1 µg/mL [3, 9]: 0%
mortality at 11.1 µg/mL [3, 10]: 0%
mortality at 11.1 µg/mL [3, 11]: 0%
mortality at 11.1 µg/mL [3, 12]: 0%

CCCCCCC1CCC(=O)O1 (stereo not drawn) [SAR-014]
Effect on brown garden snails [4]: strongly repel brown garden snails
24 hr mortality ([4]; 24 hr): 0%
Consumed amount of corn starch [4]: 0% after
mortality at 11.1 µg/mL [3, 9]: 0%
mortality at 11.1 µg/mL [3, 10]: 0%
mortality at 11.1 µg/mL [3, 11]: 0%
mortality at 11.1 µg/mL [3, 12]: 0%

CCCCCCCCCC(=O)NC1CCCC1 [SAR-020, N-Cyclopentyldecanamide]
mortality at 11.1 µg/mL [3, 13]: 75 ± 7%
mortality at 11.1 µg/mL [3, 14]: 75 ± 7%
mortality at 11.1 µg/mL [3, 15]: 75 ± 7%
mortality at 11.1 µg/mL [3, 16]: 75 ± 7%

CCCCCCCCCC(=O)N1CCCCC1 [SAR-021, N-(Decanoyl)piperidine]
mortality at 11.1 µg/mL [3, 13]: 55 ± 21%
mortality at 11.1 µg/mL [3, 14]: 55 ± 21%
mortality at 11.1 µg/mL [3, 15]: 60 ± 14%
mortality at 11.1 µg/mL [3, 16]: 65 ± 7%

CCCCCCCCCC(=O)N1CCCCCC1 [SAR-022, N-(Decanoyl)hexamethyleneimine]
mortality at 11.1 µg/mL [3, 13]: 35 ± 7%
mortality at 11.1 µg/mL [3, 14]: 40 ± 14%
mortality at 11.1 µg/mL [3, 15]: 40 ± 14%
mortality at 11.1 µg/mL [3, 16]: 45 ± 21%

O=C(/C=C/c1ccccc1)NC1CCCC1 [SAR-023, N-Cyclopentylcinnamamide]
mortality at 11.1 µg/mL [3, 13]: 0%
mortality at 11.1 µg/mL [3, 14]: 0%
mortality at 11.1 µg/mL [3, 15]: 0%
mortality at 11.1 µg/mL [3, 16]: 0%

O=C(/C=C/c1ccccc1)N1CCCC1 [SAR-024, N-(trans-Cinnamoyl)pyrrolidine]
mortality at 11.1 µg/mL [3, 13]: 0%
mortality at 11.1 µg/mL [3, 14]: 0%
mortality at 11.1 µg/mL [3, 15]: 0%
mortality at 11.1 µg/mL [3, 16]: 0%

O=C(/C=C/c1ccccc1)N1CCCCC1 [SAR-025, N-(trans-Cinnamoyl)piperidine]
mortality at 11.1 µg/mL [3, 13]: 0%
mortality at 11.1 µg/mL [3, 14]: 0%
mortality at 11.1 µg/mL [3, 15]: 0%
mortality at 11.1 µg/mL [3, 16]: 0%

O=C(/C=C/c1ccccc1)N1CCCCCC1 [SAR-026, N-(trans-Cinnamoyl) hexamethyleneimine]
mortality at 11.1 µg/mL [3, 13]: 0%
mortality at 11.1 µg/mL [3, 14]: 0%
mortality at 11.1 µg/mL [3, 15]: 0%
mortality at 11.1 µg/mL [3, 16]: 0%

CCCCCCC/C=C/C(=O)NC1CCCC1 [SAR-027, N-Cyclopentyldecenamide]
mortality at 11.1 µg/mL [3, 13]: 85 ± 7%
mortality at 11.1 µg/mL [3, 14]: 95 ± 7%
mortality at 11.1 µg/mL [3, 15]: 95 ± 7%
mortality at 11.1 µg/mL [3, 16]: 95 ± 7%

CCCCCCCC=CC(=O)N1CCCC1 [SAR-030, N-(Decenoyl)pyrrolidine]
Effect on brown garden snails [4]: kill all brown garden snails after they ate
Consumed amount of corn starch [4]: Less than 5%

[H]/N=C(/N)N[C@H]1[C@H](O)[C@@H](O)[C@H](O[C@@H]2O[C@@H](C)[C@](O)(C=O)[C@H]2O[C@@H]2O[C@@H](CO)[C@H](O)[C@@H](O)[C@@H]2NC)[C@@H](N/C(N)=N\[H])[C@@H]1O [Streptomycin]
CL145A resistant or sensitive to the antibiotic [2]: resistant
Suppresses growth of CL145A ([2]; disc 10 μg): No

Gentamicin
CL145A resistant or sensitive to the antibiotic [2]: sensitive
Suppresses growth of CL145A ([2]; disc 10 μg): Yes

Penicillin
CL145A resistant or sensitive to the antibiotic [2]: resistant
Suppresses growth of CL145A ([2]; disc 10 μg): No
